According to US20240336566A1, “CRYSTALLINE FORMS OF A COMPOUND FOR THE TARGETED DEGRADATION OF THE ANDROGEN RECEPTOR” (Arvinas Operations, Inc., priority 2023, published 2024):
Where two headings read alike, the source gives them in different places.

Assay: Solvent solubility screen of Compound A (aliquot addition, HPLC of saturated solutions)
Assay type: physicochemical
Set-up: key to XRPD: A: Amorphous; P1: Pattern 1; P2: Pattern 2; *Poorly crystalline; + p1: some pattern 1 peaks
Conditions: for XRPD: solid from solubility screen
Experimental: A known volume aliquot (typically 5 volumes) of solvent was added to approximately 5 mg of Compound A. See Table 14 for the selected solvents for the solvent solubility screen.
Between each addition, the mixture was checked for dissolution and where no dissolution was apparent, the mixture was heated to ca. 40° C. and checked again. This procedure was continued until dissolution was observed or until 100 volumes of solvent had been added.
Where dissolution was not observed, solids were isolated centrifugally and analyzed by XRPD. The saturated solutions were analyzed by HPLC to obtain the solubility.

Compound `COc1cc(O[C@H]2C(C)(C)[C@H](NC(=O)c3ccc(N4CCC(CN5CCN(c6ccc(C(=O)N[C@H]7CCC(=O)NC7=O)c(F)c6)CC5)CC4)cc3)C2(C)C)ccc1C#N` [Compound A, 4-(4-((1-(4-(((1R,3R)-3-(4-cyano-3-methoxyphenoxy)-2,2,4,4-tetramethylcyclobutyl)carbamoyl)phenyl)piperidin-4-yl)methyl)piperazin-1-yl)-N—((S)-2,6-dioxopiperidin-3-yl)-2-fluorobenzamide] has a solubility (1,4-dioxane, organic solvent or mixture, thermodynamic from solid, 1,4-Dioxane, read-out: Approximate Solubility) of 100000 µg/mL, a solubility (1,4-dioxane, organic solvent or mixture, thermodynamic from solid, 1,4-Dioxane, read-out: Approximate solubility) of roughly 100000 µg/mL and a solubility (1,4-dioxane, organic solvent or mixture, thermodynamic from solid, 1,4-dioxane, read-out: solubility) greater than 100000 µg/mL. It also gave a solubility (1-butanol, 40 °C, organic solvent or mixture, thermodynamic from solid, 1-Butanol, read-out: Approximate Solubility) of 188 µg/mL, a solubility (1-propanol, 40 °C, organic solvent or mixture, thermodynamic from solid, 1-Propanol, read-out: Approximate Solubility) of 232 µg/mL and a solubility (2-Butanone (MEK), 40 °C, organic solvent or mixture, thermodynamic from solid, 2-Butanone (MEK), read-out: Approximate Solubility) of 2130 µg/mL. The solubility (2-Ethoxyethanol, 40 °C, organic solvent or mixture, thermodynamic from solid, 2-Ethoxyethanol, read-out: Approximate Solubility) was 1550 µg/mL, the solubility (2-Methyl THF, 40 °C, organic solvent or mixture, thermodynamic from solid, 2-Methyl THF, read-out: Approximate Solubility) was 2890 µg/mL and the solubility (2-Propanol, 40 °C, organic solvent or mixture, thermodynamic from solid, 2-Propanol, read-out: Approximate Solubility) was 205 µg/mL. It also gave a solubility (2-propanol:water (90:10% v/v), 40 °C, organic solvent or mixture, thermodynamic from solid, 2-Propanol:Water (90:10% v/v), read-out: Approximate Solubility) of 186 µg/mL, a solubility (3-Methyl-1-butanol, 40 °C, organic solvent or mixture, thermodynamic from solid, 3-Methyl-1-butanol, read-out: Approximate Solubility) of 1220 µg/mL and a solubility (Acetone, 40 °C, organic solvent or mixture, thermodynamic from solid, Acetone, read-out: Approximate Solubility) of 2730 µg/mL. For the same compound, the solubility (Acetonitrile, 40 °C, organic solvent or mixture, thermodynamic from solid, Acetonitrile, read-out: Approximate Solubility) was 995 µg/mL, the solubility (Anisole, organic solvent or mixture, thermodynamic from solid, Anisole, read-out: Approximate Solubility) was 25000 µg/mL and the solubility (Butyl acetate, 40 °C, organic solvent or mixture, thermodynamic from solid, Butyl acetate, read-out: Approximate Solubility) was 209 µg/mL. It also gave a solubility (DCM, organic solvent or mixture, thermodynamic from solid, DCM, read-out: Approximate solubility) of roughly 50000 µg/mL, a solubility (DCM, organic solvent or mixture, thermodynamic from solid, DCM, read-out: solubility) of 50000 to 100000 µg/mL and a solubility (DCM:methanol (50:50% v/v), organic solvent or mixture, thermodynamic from solid, DCM:methanol (50:50% v/v), read-out: solubility) of 50000 to 100000 µg/mL. For the same compound, the solubility (DCM:methanol (75:25% v/v), organic solvent or mixture, thermodynamic from solid, DCM:methanol (75:25% v/v), read-out: solubility) was greater than 100000 µg/mL, the solubility (DMA, organic solvent or mixture, thermodynamic from solid, DMA, read-out: solubility) was greater than 100000 µg/mL and the solubility (DMF, organic solvent or mixture, thermodynamic from solid, DMF, read-out: solubility) was greater than 100000 µg/mL. It also gave a solubility (DMSO, organic solvent or mixture, thermodynamic from solid, DMSO, read-out: solubility) greater than 100000 µg/mL, a solubility (Dichloromethane, organic solvent or mixture, thermodynamic from solid, Dichloromethane, read-out: Approximate Solubility) of 50000 µg/mL and a solubility (N,N′-dimethylacetamide, organic solvent or mixture, thermodynamic from solid, N,N′-Dimethylacetamide, read-out: Approximate Solubility) of 100000 µg/mL. For the same compound, the solubility (N,N′-dimethylformamide, organic solvent or mixture, thermodynamic from solid, N,N′-Dimethylformamide, read-out: Approximate Solubility) was 100000 µg/mL, the solubility (N-methylpyrrolidone, organic solvent or mixture, thermodynamic from solid, N-Methylpyrrolidone, read-out: Approximate Solubility) was 50000 µg/mL and the solubility (NMP, organic solvent or mixture, thermodynamic from solid, NMP, read-out: solubility) was 50000 to 100000 µg/mL. It also gave a solubility (THF, organic solvent or mixture, thermodynamic from solid, THF, read-out: Approximate solubility) of roughly 50000 µg/mL, a solubility (THF, organic solvent or mixture, thermodynamic from solid, THF, read-out: solubility) of 50000 to 100000 µg/mL and a solubility (THF:water (98:2% v/v), organic solvent or mixture, thermodynamic from solid, THF:water (98:2% v/v), read-out: solubility) of 50000 to 100000 µg/mL. For the same compound, the solubility (acetone:water (90:10% v/v), 40 °C, organic solvent or mixture, thermodynamic from solid, Acetone:Water (90:10% v/v), read-out: Approximate Solubility) was 5680 µg/mL, the solubility (acetonitrile:water (75:25% v/v), 40 °C, organic solvent or mixture, thermodynamic from solid, Acetonitrile:Water (75:25% v/v), read-out: Approximate Solubility) was 1050 µg/mL and the solubility (anisole, organic solvent or mixture, thermodynamic from solid, anisole, read-out: solubility) was 25000 to 50000 µg/mL. For the same compound, the solubility (dichloromethane:methanol (50:50% v/v), organic solvent or mixture, thermodynamic from solid, Dichloromethane:Methanol (50:50% v/v), read-out: Approximate Solubility) was 50000 µg/mL, the solubility (dichloromethane:methanol (50:50% v/v), organic solvent or mixture, thermodynamic from solid, Dichloromethane:Methanol (50:50% v/v), read-out: Approximate solubility) was roughly 50000 µg/mL and the solubility (dichloromethane:methanol (75:25% v/v), organic solvent or mixture, thermodynamic from solid, Dichloromethane:Methanol (75:25% v/v), read-out: Approximate Solubility) was 100000 µg/mL. For the same compound, the solubility (diethyl ether, 40 °C, organic solvent or mixture, thermodynamic from solid, Diethyl ether, read-out: Approximate Solubility) was 2 µg/mL, the solubility (dimethylsulfoxide, organic solvent or mixture, thermodynamic from solid, Dimethylsulfoxide, read-out: Approximate Solubility) was 100000 µg/mL and the solubility (ethanol, 40 °C, organic solvent or mixture, thermodynamic from solid, Ethanol, read-out: Approximate Solubility) was 276 µg/mL. It also gave a solubility (ethanol:water (50:50% v/v), 40 °C, aqueous with cosolvent or surfactant or cyclodextrin, thermodynamic from solid, Ethanol:Water (50:50% v/v), read-out: Approximate Solubility) of 19.2 µg/mL, a solubility (ethyl acetate, 40 °C, organic solvent or mixture, thermodynamic from solid, Ethyl acetate, read-out: Approximate Solubility) of 444 µg/mL and a solubility (ethyl formate, 40 °C, organic solvent or mixture, thermodynamic from solid, Ethyl formate, read-out: Approximate Solubility) of 1010 µg/mL. It also gave a solubility (heptane, 40 °C, organic solvent or mixture, thermodynamic from solid, Heptane, read-out: Approximate Solubility) of 1.7 µg/mL, a solubility (isopropyl acetate, organic solvent or mixture, thermodynamic from solid, Isopropyl acetate, read-out: Approximate Solubility) of 174 µg/mL and a solubility (methanol, organic solvent or mixture, thermodynamic from solid, Methanol, read-out: Approximate Solubility) of 437 µg/mL. For the same compound, the solubility (methylisobutyl ketone, organic solvent or mixture, thermodynamic from solid, Methylisobutyl ketone, read-out: Approximate Solubility) was 530 µg/mL, the solubility (organic solvent or mixture, thermodynamic from solid, remaining 25 solvent systems tested, read-out: solubility) was less than 5000 µg/mL and the XRPD (1,4-Dioxane) was “A”. For the same compound, the XRPD (1-Butanol) was “P1”, the XRPD (1-Propanol) was “P1” and the XRPD (2-Butanone (MEK)) was “P1”. The XRPD (2-Ethoxyethanol) was “P1”, the XRPD (3-Methyl-1-butanol) was “A” and the XRPD (Acetone) was “P1”. The XRPD (Acetonitrile:Water (75:25% v/v)) was “A”, the XRPD (Butyl acetate) was “P1” and the XRPD (Dichloromethane) was “A”. The XRPD (Dichloromethane:Methanol (50:50% v/v)) was “A”, the XRPD (Dichloromethane:Methanol (75:25% v/v)) was “A” and the XRPD (Ethanol) was “P1”. The XRPD (Ethyl acetate) was “P1”, the XRPD (Heptane) was “A” and the XRPD (Toluene) was “A”. The XRPD (Water) was “A”, the XRPD (tert-Butylmethyl ether) was “A” and the solubility (tert-Butylmethyl ether, organic solvent or mixture, thermodynamic from solid, tert-Butylmethyl ether, read-out: Approximate Solubility) was 108 µg/mL. It also gave a solubility (tetrahydrofuran, organic solvent or mixture, thermodynamic from solid, Tetrahydrofuran, read-out: Approximate Solubility) of 50000 µg/mL, a solubility (tetrahydrofuran:water (98:2% v/v), organic solvent or mixture, thermodynamic from solid, Tetrahydrofuran:Water (98:2% v/v), read-out: Approximate Solubility) of 50000 µg/mL and a solubility (tetrahydrofuran:water (98:2% v/v), organic solvent or mixture, thermodynamic from solid, Tetrahydrofuran:Water (98:2% v/v), read-out: Approximate solubility) of roughly 50000 µg/mL. It also gave a solubility (toluene, organic solvent or mixture, thermodynamic from solid, Toluene, read-out: Approximate Solubility) of 29.8 µg/mL and a solubility (water, thermodynamic from solid, Water, read-out: Approximate Solubility) of 0.5 µg/mL.
